ChEMBL document CHEMBL1250504, “Antihypertensive and antiarrhythmic properties of a para-hydroxy[bis(ortho-morpholinylmethyl)]phenyl-1,4-DHP compound: comparison with other compounds of the same kind and relationship with logP values” (Eur J Med Chem, 2010)
Active and inactive are the calls of the source. No cut-off for these calls is given here.

Legend:
[1] = Octanol-water partition coefficient, log P of the compound
Rattus norvegicus [2] = experiment: Antihypertensive activity in spontaneous hypertensive rat model assessed as reduction of diastolic pressure at 0.1 mg/kg, po after 120 mins; type: functional, organism-based; parameters: dose 0.1 mg/kg
Rattus norvegicus [3] = experiment: Antihypertensive activity in Wistar rat invasive arterial pressure model assessed as reduction of systolic pressure at 0.1 mg/kg, iv; type: functional, organism-based; parameters: dose 0.1 mg/kg; conditions: Artery
Rattus norvegicus [4] = experiment: Antihypertensive activity in spontaneous hypertensive rat model assessed as reduction of diastolic pressure at 0.1 mg/kg, po after 50 mins; type: functional, organism-based; parameters: dose 0.1 mg/kg
Rattus norvegicus [5] = experiment: Antiarrhythmic activity in spontaneous hypertensive rat model assessed as reduction of heart rate at 0.1 mg/kg, po after 40 mins; type: functional, organism-based; parameters: dose 0.1 mg/kg
Rattus norvegicus [6] = experiment: Antiarrhythmic activity in spontaneous hypertensive rat model assessed as reduction of heart rate at 0.1 mg/kg, po after 120 mins; type: functional, organism-based; parameters: dose 0.1 mg/kg
Rattus norvegicus [7] = experiment: Antiarrhythmic activity in Wistar rat invasive arterial pressure model assessed as reduction of heart rate at 0.1 mg/kg, iv; type: functional, organism-based; parameters: dose 0.1 mg/kg
Rattus norvegicus [8] = experiment: Antihypertensive activity in spontaneous hypertensive rat model assessed as reduction of systolic pressure at 0.1 mg/kg, po after 50 mins; type: functional, organism-based; parameters: dose 0.1 mg/kg
Rattus norvegicus [9] = experiment: Antihypertensive activity in Wistar rat invasive arterial pressure model assessed as reduction of diastolic pressure at 0.1 mg/kg, iv; type: functional, organism-based; parameters: dose 0.1 mg/kg; conditions: Artery
Rattus norvegicus [10] = experiment: Antihypertensive activity in spontaneous hypertensive rat model assessed as reduction of systolic pressure at 0.1 mg/kg, po after 120 mins; type: functional, organism-based; parameters: dose 0.1 mg/kg
Rattus norvegicus [11] = experiment: Antihypertensive activity in Wistar rat invasive arterial pressure model assessed as reduction of systolic pressure at 1 mg/kg, iv; type: functional, organism-based; parameters: dose 1 mg/kg; conditions: Artery
Rattus norvegicus [12] = experiment: Antihypertensive activity in Wistar rat invasive arterial pressure model assessed as reduction of diastolic pressure at 1 mg/kg, iv; type: functional, organism-based; parameters: dose 1 mg/kg; conditions: Artery

| Structure (SMILES) | logP [1] | Activity (Rattus norvegicus [7]) | Activity (Rattus norvegicus [11]) | Activity (Rattus norvegicus [12]) | other results |
| --- | --- | --- | --- | --- | --- |
| C[C@H](CS)C(=O)N1CCC[C@H]1C(=O)O [CAPTOPRIL] | 1.02 | – | – | – | – |
| CCOC(=O)C1=C(C)NC(C)=C(C(=O)OCC)C1c1cc(CN2CCOCC2)c(O)c(CN2CCOCC2)c1 | 2.7 | Active | – | – | Activity (Rattus norvegicus [2]): Active; Activity (Rattus norvegicus [3]): Active; Activity (Rattus norvegicus [4]): Active; Activity (Rattus norvegicus [5]): Active; Activity (Rattus norvegicus [6]): Active; Activity (Rattus norvegicus [8]): Active; Activity (Rattus norvegicus [9]): Active; Activity (Rattus norvegicus [10]): Active |
| CC(C)(C)c1cc(CN2CCSCC2)c(O)c(CN2CCSCC2)c1 | 2.03 | Active | Active | Active | – |
| Oc1ccc(Cl)cc1CN1CCSCC1 | > 3.05 | Active | Active | Active | – |
| CCCCc1nc(Cl)c(CO)n1Cc1ccc(-c2ccccc2-c2nn[nH]n2)cc1 [LOSARTAN] | 4.01 | – | – | – | – |
| CC(C)(C)c1ccc(O)c(CN2CCSCC2)c1 | 1.96 | Active | Active | Active | – |
